Reference: publication PMC12596568, “Retention of a SulP-family bicarbonate transporter in a periplasmic N2-fixing cyanobacterial endosymbiont of an open ocean diatom” (The ISME Journal, 2025)

System: RintRC_3892
Conditions: read-out: K0.5; 20 mM TES-KOH pH 8, 30-33 mM NaCl (Na+-dependent), 30°C, light; labelled compound; n = 5; actual K0.5 might be somewhat higher because of non-labelled bicarbonate

O=C(O)O [bicarbonate]
Km: ~464 µM
